Reference: patent US5700817A, “Cyclic lipid derivatives as potent PAF antagonists” (Pohang Iron & Steel Co., Ltd., priority 1993, dated 1997)

Assays:
[1] = system: PAF-induced [^14 C]serotonin release, rabbit platelets; assay: Inhibitory action on PAF-induced [14C]-serotonin release from rabbit platelets; assay type: cell-based, New Zealand white male rabbits; settings: Oryctolagus cuniculus, Platelet, PAF 1×10^-9 M; for inhibition at 0.05 µM: test compound 5 × 10^-8 M; for inhibition at 0.005 µM: test compound 5 × 10^-9 M
Experimental: The following pharmacological test examples explain the effects of the present invention in a more concrete manner.
Inhibitory action on PAF-induced [^14 ]-serotonin release
Blood was collected from the hearts of conscious New Zealand white male rabbits weighing 2 to 3 kg. The blood was immediately subjected to a centrifuge at 1400 rpm for 10 minutes to obtain platelet rich plasma(PRP).PRP was incubated with a trace amount of [^14 C]-serotonin for 20 minutes at 22° C. Prelabelled platelets were prepared by centrifugation at 3500 rpm for 10 minutes. The test compound was added to 80 μl of [^14 C]serotonin-labeled platelets in plastic test tubes, and the mixture was incubated for 2 minutes. PAF (1×10 ^-9 M) was then added to the reaction mixture and incubated for additional 2 minutes at which time 10 μl of cold formaldehyde was added to stop the reactions. The tubes were immediately cooled to 4° C. and centrifuged at 12000 rpm for 2 minutes. The supernatants (80 μl) were assayed for percentage of [^14 C]serotonin release by the conventional methods of measuring ^14 C counts.

[2] = system: PAF-induced platelet aggregation, rabbit platelets; assay: Inhibitory action on PAF-induced platelet aggregation (platelet-rich plasma); assay type: cell-based, New Zealand male rabbits; settings: Oryctolagus cuniculus, PAF 5×10^-9 M, 37° C., turbidimetry, rabbit PRP
Experimental: Blood was collected from the hearts of conscious New Zealand male rabbits weighing 2 to 3 kg using citric acid as an anticoagulant (one volume part of 3% citric acid relative to 9 volume parts of the whole blood). A platelet-rich plasma(PRP) was prepared by centrifugation at 1000 rpm for 10 minutes. The remaining blood after collecting the PRP was subjected to a centrifuge at 3000 rpm for 10 minutes to obtain platelet poor plasma(PPP). PRP was diluted with PPP to adjust the number of platelets to about 3×10^5 /μl. Solution of test compound (30 μl) was added to the PRP(270 μl), and after incubation for 2 minutes at 37° C., 30 μl aliquot of PAF(5×10^-9 M) was added. Platelet aggregation was then examined by means of turbidimetry [Born, Nature, 194, 927(1962)] with dual channel aggregometer (Chrono-Log. Corp., Havertown, Pa.). As the control, physiological saline without test sample was used. The platelet aggregation inhibiting activities of the test sample are expressed as IC50, that is the concentration of the compound at which 50% of the aggregation is inhibited.

[3] = target: T1, PAF receptor (Oryctolagus cuniculus, UniProt G1TEI7); assay: PAF Receptor Binding Assay ([3H]C18-PAF, rabbit platelet membranes)
T1 construct: Platelet membranes were prepared by centrifugation and washing; tissue Pel-Freez (Rogers, AR), supplier of the citrated whole rabbit blood; host or cells: rabbit platelet membranes
Experimental: PAF Receptor Binding Assay Citrated whole rabbit blood was obtained from Pel-Freez(Rogers, AR). Rabbit platelets were prepared by centrifugation and washing. The platelets were lysed by freeze-thawing and sonification; Platelet membranes were prepared by centrifugation and washing. Final membrane preparation were stored frozen in 10 mM Tris/5 mM MgCl2 /2 mM EDTA (TME buffer, pH 7.0) with 0.25M sucrose added for membrane stabilization. […] The final volume of the assay was 1001 μl. The assay was conducted in Millititer-GV™(Millipore Corp.) filtration plates; incubation time was for 60 minutes at room temperature (22°-23° C.). […] The filters were dried and removed. The bound radioactivity was quantiated with a Berthold TLC-Linear Analyzer model LB2842. […] Experiments were repeated at least once. […] Ki values of inhibitory binding constants were calculated according to the methods of the literature[Cheng et al., Biochem.

T1 sequence (G1TEI7 1-342): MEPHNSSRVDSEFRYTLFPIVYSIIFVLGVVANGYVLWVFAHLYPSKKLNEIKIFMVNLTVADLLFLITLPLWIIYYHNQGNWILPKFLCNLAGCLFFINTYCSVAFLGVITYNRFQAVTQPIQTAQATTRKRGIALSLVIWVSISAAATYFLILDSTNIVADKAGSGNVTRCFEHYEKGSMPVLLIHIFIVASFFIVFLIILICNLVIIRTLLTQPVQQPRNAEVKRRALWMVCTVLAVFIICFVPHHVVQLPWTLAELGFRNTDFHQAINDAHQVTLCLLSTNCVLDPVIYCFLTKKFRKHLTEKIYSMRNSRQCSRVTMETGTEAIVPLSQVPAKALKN

Question: How did the inhibition at 0.2 µM ([1]; test compound 2 × 10^-7 M) turn out when `CCCCCCCCCCCCCCCCOC[C@H]1C[C@@H](COC(=O)N(Cc2cccc[n+]2CC)C(C)=O)O1` (relative stereo) [Example 1, cis-2-[[N-Acetyl-N-[[[2-[(hexadecyloxy)methyl]-4-oxetanyl]methoxy]carbonyl]amino]methyl]-1-ethyl-pyridinium iodide] was run?
Answer: 90%

Question: `CCCCCCCCCCCCCCCCCCNC(=O)OC[C@H]1C[C@H](COC(=O)N(Cc2cccc[n+]2CC)C(C)=O)O1` (relative stereo) [Example 5, trans-2-[[N-Acetyl-N-[[[4-[[(octadecylcarbamoyl)oxy]methyl]-2-oxetanyl]methoxy]carbonyl]amino]methyl]-1-ethyl-pyridinium iodide] was tested. Which inhibition at 0.05 µM [1] did it give?
Answer: 95%

Question: And the inhibition at 0.005 µM [1]?
Answer: 70%

Question: Which inhibition at 0.05 µM [1] does the source give for `CCCCCCCCCCCCCCCCCCNC(=O)OC[C@@H]1C[C@H](COC(=O)N(Cc2cccc[n+]2CC)C(C)=O)O1` (relative stereo) [Example 3, cis-2-[[N-Acetyl-N-[[[4-[[(octadecylcarbamoyl)oxy]methyl]-2-oxetanyl]methoxy]carbonyl]amino]methyl]-1-ethyl-pyridinium iodide] here?
Answer: 85%

Question: With `CCCCCCCCCCCCCCCCOC[C@H]1C[C@H](COC(=O)N(Cc2cccc[n+]2CC)C(=O)c2ccccc2OC)S1` (relative stereo) [Example 33, trans-2-[[N-(2-Methoxy)benzoyl-N-[[[4-[(hexadecyloxy)methyl]-2-thietanyl]methoxy]carbonyl]amino]methyl]-1-ethyl-pyridinium chloride] as the compound, how does the IC50 [2] read?
Answer: 19 nM

Question: For `CCCCCCCCCCCCCCCCCCNC(=O)OC[C@H]1C[C@H](COC(=O)N(Cc2cccc[n+]2CC)C(C)=O)N1C(=O)c1ccccc1` (relative stereo) [Example 44, 2-[[N-Acetyl-N-[[[4-[[(octadecylcarbamoyl)oxy]methyl]-1-benzoylazetidine-2-yl]methoxy]carbonyl]amino]methyl]-1-ethyl-pyridinium chloride], which Ki [3] is on record?
Answer: 104 nM

Question: `CCCCCCCCCCCCCCCCCCNC(=O)OCC1(COC(=O)N(Cc2cccc[n+]2CC)C(C)=O)COC1` [Example 6, 2-[[-Acetyl-N-[[[3-[[(octadecylcarbamoyl)oxy]methyl]-3-oxetanyl]methoxy]carbonyl]amino]methyl]-1-ethyl-pyridinium iodide] was tested. Which inhibition at 0.005 µM [1] did it give?
Answer: 75%

Question: With `CCCCCCCCCCCCCCCCCCNC(=O)OCC1(COC(=O)CCCCC[n+]2ccsc2)COC1` [Example 13, 3-[5-[[[3-[[(Octadecylcarbamoyl)oxy]methyl]-3-oxetanyl]methoxy]carbonyl]pentyl]thiazolium bromide] as the compound, how does the inhibition at 0.05 µM [1] read?
Answer: 85%

Question: Which Ki [3] does the source give for `CCCCCCCCCCCCCCCCCCNC(=O)OC[C@H]1C[C@H](COC(=O)N(Cc2cccc[n+]2CC)C(=O)c2ccccc2OC)S1` (relative stereo) [Example 30, trans-2-[[N-(2-Methoxy)benzoyl-N-[[[4-[[(octadecylcarbamoyl)oxy]ethyl]-2-thietanyl]methoxy]carbonyl]amino]-1-ethyl-pyridinium chloride] here?
Answer: 34 nM
